Laboratory results taken from publication PMC7490411 (Signal Transduction and Targeted Therapy, 2020).

How the values were obtained:
[1] = biological target: T1, BLK (Homo sapiens, UniProt P51451); assay: ADP-Glo biochemical kinase assay
T1 construct: purchased Invitrogen (Carlsbad, CA, USA)
From the text: (§1) The biochemical tests of BMX, BLK, JAK3, TXK, HER2, HER4, ITK, EGFR, and BTK were provided by Invitrogen (Carlsbad, CA, USA).

[2] = biological target: T2, BMX (Homo sapiens, UniProt P51813); assay: ADP-Glo biochemical kinase assay
T2 construct: purchased Invitrogen (Carlsbad, CA, USA)
T2 sequence (P51813 1-675): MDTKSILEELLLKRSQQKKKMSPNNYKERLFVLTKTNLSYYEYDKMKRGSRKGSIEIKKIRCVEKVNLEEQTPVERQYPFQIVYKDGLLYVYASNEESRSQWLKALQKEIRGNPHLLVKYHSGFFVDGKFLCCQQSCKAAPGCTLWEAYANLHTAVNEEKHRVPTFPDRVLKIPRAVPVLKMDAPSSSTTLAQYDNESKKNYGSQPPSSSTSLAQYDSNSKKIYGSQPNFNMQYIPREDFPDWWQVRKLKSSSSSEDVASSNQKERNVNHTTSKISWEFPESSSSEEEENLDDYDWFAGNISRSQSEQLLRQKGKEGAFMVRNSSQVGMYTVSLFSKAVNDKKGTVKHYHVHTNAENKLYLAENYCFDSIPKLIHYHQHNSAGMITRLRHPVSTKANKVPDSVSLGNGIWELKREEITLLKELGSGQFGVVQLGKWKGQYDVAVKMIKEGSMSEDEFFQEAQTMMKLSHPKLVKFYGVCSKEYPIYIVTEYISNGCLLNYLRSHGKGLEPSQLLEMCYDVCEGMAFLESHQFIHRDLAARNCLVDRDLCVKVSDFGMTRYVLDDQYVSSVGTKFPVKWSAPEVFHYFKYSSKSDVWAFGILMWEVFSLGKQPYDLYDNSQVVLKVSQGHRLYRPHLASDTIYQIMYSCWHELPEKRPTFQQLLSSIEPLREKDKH
From the text: as §1

[3] = biological target: T3, HER2 (Homo sapiens, UniProt P04626); assay: ADP-Glo biochemical kinase assay
T3 construct: purchased Invitrogen (Carlsbad, CA, USA)
T3 sequence (P04626 23-1255): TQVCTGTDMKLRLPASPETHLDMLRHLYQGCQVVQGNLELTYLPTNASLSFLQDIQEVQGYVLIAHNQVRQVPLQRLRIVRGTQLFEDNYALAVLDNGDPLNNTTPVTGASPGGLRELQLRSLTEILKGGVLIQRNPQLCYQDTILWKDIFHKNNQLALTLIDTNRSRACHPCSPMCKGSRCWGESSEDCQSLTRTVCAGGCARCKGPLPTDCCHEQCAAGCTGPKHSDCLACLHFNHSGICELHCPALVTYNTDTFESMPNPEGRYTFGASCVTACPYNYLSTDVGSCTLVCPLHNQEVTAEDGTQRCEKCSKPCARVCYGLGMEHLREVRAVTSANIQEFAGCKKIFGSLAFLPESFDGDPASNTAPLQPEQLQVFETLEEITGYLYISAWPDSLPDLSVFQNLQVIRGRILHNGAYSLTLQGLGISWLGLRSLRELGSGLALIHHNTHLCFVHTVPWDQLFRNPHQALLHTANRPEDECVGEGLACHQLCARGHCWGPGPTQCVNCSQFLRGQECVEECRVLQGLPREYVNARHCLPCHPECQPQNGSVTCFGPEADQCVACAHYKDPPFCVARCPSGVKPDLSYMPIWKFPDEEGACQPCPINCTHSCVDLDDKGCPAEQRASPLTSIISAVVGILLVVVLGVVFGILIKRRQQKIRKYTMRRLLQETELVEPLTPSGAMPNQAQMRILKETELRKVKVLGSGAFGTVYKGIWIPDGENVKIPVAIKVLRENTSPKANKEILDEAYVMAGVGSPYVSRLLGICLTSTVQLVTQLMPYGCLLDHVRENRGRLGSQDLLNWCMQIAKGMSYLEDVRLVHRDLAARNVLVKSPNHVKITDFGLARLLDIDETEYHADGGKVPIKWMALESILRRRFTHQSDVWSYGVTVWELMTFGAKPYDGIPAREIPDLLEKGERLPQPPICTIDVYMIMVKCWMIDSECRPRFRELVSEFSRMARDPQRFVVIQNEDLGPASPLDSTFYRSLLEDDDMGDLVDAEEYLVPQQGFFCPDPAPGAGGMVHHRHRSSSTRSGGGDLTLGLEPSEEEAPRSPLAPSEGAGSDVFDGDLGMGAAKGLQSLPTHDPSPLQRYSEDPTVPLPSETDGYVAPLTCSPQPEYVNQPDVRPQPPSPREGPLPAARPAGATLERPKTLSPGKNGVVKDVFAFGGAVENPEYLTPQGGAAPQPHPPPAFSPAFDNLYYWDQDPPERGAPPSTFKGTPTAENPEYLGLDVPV
From the text: as §1

[4] = biological target: T4, HER4 (Homo sapiens, UniProt Q15303); assay: ADP-Glo biochemical kinase assay
T4 construct: purchased Invitrogen (Carlsbad, CA, USA)
T4 sequence (Q15303 26-1308): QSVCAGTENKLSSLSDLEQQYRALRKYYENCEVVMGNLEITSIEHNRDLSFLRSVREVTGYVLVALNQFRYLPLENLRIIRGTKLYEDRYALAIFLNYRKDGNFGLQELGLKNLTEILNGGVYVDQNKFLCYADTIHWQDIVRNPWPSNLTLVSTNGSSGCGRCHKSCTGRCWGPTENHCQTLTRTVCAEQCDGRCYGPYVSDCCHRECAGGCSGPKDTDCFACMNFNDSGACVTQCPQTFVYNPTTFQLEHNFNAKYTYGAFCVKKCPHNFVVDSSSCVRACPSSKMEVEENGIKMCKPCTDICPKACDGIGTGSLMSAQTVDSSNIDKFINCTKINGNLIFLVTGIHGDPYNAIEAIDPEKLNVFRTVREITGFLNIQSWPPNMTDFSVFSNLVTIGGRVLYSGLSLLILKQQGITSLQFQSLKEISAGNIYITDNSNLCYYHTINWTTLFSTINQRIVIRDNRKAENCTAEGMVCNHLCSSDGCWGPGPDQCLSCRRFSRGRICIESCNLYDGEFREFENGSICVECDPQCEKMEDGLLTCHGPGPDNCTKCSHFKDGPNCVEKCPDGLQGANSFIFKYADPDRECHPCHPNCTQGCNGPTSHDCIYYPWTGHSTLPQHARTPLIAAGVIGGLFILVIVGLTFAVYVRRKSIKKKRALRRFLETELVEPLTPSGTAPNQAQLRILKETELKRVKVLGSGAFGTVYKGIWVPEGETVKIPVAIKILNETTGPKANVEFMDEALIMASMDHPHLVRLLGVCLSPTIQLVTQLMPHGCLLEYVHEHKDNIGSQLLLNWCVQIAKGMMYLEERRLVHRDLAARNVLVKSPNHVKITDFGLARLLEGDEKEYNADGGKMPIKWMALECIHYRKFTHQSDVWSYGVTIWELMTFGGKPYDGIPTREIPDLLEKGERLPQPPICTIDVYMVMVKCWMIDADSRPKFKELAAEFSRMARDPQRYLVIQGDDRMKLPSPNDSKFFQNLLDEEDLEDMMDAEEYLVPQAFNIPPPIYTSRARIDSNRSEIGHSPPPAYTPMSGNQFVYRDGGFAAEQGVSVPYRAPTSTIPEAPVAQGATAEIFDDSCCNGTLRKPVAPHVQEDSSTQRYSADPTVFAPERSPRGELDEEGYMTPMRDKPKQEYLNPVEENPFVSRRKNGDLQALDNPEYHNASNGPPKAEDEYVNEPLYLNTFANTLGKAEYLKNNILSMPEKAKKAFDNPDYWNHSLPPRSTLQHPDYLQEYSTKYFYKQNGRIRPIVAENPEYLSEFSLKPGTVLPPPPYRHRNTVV
From the text: as §1

[5] = biological target: T5, ITK (Homo sapiens, UniProt Q08881); assay: ADP-Glo biochemical kinase assay
T5 construct: purchased Invitrogen (Carlsbad, CA, USA)
T5 sequence (Q08881 1-620): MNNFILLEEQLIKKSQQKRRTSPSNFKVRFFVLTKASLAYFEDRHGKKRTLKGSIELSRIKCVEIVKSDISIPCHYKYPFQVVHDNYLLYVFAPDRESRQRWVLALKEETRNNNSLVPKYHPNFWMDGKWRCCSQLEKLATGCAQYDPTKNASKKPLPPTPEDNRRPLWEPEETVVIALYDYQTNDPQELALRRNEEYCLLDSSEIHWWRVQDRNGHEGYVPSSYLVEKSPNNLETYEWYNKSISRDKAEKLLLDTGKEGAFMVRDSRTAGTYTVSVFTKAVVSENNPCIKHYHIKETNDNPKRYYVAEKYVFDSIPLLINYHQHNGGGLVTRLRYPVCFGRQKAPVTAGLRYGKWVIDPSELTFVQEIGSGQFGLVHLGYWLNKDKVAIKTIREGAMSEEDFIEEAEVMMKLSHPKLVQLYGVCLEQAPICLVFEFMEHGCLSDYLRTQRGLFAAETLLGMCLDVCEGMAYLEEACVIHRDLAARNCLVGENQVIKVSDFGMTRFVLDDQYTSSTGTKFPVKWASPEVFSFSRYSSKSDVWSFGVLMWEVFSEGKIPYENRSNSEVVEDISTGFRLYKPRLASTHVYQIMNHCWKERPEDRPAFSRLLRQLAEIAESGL
From the text: as §1

[6] = biological target: T6, TXK (Homo sapiens, UniProt P42681); assay: ADP-Glo biochemical kinase assay; details: read-out: IC50 against TXK
T6 construct: purchased Invitrogen (Carlsbad, CA, USA)
T6 sequence (P42681 whole entry): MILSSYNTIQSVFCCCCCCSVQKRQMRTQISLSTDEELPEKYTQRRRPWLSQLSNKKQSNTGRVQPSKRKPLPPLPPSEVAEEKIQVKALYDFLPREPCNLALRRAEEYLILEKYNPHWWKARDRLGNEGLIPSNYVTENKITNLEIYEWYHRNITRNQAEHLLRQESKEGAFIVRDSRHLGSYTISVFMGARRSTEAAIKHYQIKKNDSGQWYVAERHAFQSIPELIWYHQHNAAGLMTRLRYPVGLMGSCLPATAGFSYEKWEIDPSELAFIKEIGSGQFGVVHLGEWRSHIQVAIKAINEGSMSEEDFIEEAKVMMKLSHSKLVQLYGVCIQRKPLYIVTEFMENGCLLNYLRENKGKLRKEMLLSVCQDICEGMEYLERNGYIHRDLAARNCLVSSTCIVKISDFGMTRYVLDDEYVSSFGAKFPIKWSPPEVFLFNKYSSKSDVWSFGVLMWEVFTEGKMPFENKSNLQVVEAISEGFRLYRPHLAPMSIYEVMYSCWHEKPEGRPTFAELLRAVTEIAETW
From the text: as §1

[7] = system: ABL1(H396P)-nonphosphorylated; assay: KINOMEscan; format: binding; details: 1000 nM
[8] = system: ABL1(M351T)-phosphorylated; assay: KINOMEscan; format: binding; details: 1000 nM
[9] = system: ABL1(Y253F)-phosphorylated; assay: KINOMEscan; format: binding; details: 1000 nM
[10] = system: BIKE; assay: KINOMEscan; format: binding; details: 1000 nM
[11] = system: BMPR1B; assay: KINOMEscan; format: binding; details: 1000 nM
[12] = system: CAMK2B; assay: KINOMEscan; format: binding; details: 1000 nM
[13] = system: CAMK2G; assay: KINOMEscan; format: binding; details: 1000 nM
[14] = system: CDC2L1; assay: KINOMEscan; format: binding; details: 1000 nM
[15] = system: DCAMKL2; assay: KINOMEscan; format: binding; details: 1000 nM
[16] = system: EGFR(G719C); assay: KINOMEscan; format: binding; details: 1000 nM
[17] = system: EPHB3; assay: KINOMEscan; format: binding; details: 1000 nM
[18] = system: FAK; assay: KINOMEscan; format: binding; details: 1000 nM
[19] = system: IRAK4; assay: KINOMEscan; format: binding; details: 1000 nM
[20] = system: KIT(A829P); assay: KINOMEscan; format: binding; details: 1000 nM
[21] = system: MAP4K2; assay: KINOMEscan; format: binding; details: 1000 nM
[22] = system: MKNK1; assay: KINOMEscan; format: binding; details: 1000 nM
[23] = system: p38-delta; assay: KINOMEscan; format: binding; details: 1000 nM
[24] = system: PIK3CA(E545K); assay: KINOMEscan; format: binding; details: 1000 nM
[25] = system: PIK3CA(H1047L); assay: KINOMEscan; format: binding; details: 1000 nM
[26] = system: PIP5K1A; assay: KINOMEscan; format: binding; details: 1000 nM
[27] = system: STK16; assay: KINOMEscan; format: binding; details: 1000 nM
[28] = system: STK33; assay: KINOMEscan; format: binding; details: 1000 nM
[29] = system: WEE1; assay: KINOMEscan; format: binding; details: 1000 nM
[30] = system: WNK1; assay: KINOMEscan; format: binding; details: 1000 nM

T1 sequence (P51451 whole entry): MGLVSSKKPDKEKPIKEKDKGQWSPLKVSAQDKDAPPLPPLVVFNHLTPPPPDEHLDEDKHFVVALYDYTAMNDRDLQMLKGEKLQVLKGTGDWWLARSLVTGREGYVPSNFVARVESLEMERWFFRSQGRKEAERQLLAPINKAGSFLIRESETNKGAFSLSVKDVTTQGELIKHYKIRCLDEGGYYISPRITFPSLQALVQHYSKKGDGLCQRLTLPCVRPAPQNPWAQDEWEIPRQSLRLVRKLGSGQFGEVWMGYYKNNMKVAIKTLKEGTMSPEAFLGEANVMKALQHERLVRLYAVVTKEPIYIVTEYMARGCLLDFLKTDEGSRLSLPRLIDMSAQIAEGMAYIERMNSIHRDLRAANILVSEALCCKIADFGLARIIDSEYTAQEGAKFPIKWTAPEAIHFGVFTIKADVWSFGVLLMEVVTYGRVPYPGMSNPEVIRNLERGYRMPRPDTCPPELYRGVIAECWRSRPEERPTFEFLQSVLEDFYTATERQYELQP

Compound: C=CC(=O)Nc1cc(Nc2cc(-c3cccc(NC(=O)c4cc5c(s4)CCCC5)c3C)cn(C)c2=O)ccc1N1CCN(CC)CC1 [CHMFL-BTK-85]
- IC50 ([1]; read-out: IC50 against BLK): > 10 µM
- selectivity over BLK ([1]; vs BTK): more than 1000 fold
- IC50 ([2]; read-out: IC50 against BMX): 0.12 ± 0.0037 µM
- selectivity over BMX ([2]; vs BTK): 10 fold
- IC50 ([3]; read-out: IC50 against HER2): > 10 µM
- selectivity over HER2 ([3]; vs BTK): more than 1000 fold
- IC50 ([4]; read-out: IC50 against HER4): > 10 µM
- selectivity over HER4 ([4]; vs BTK): more than 1000 fold
- IC50 ([5]; read-out: IC50 against ITK): > 10 µM
- selectivity over ITK ([5]; vs BTK): more than 1000 fold
- IC50 [6]: 3.313 ± 0.017 µM
- Percent Control [7]: 92%
- Percent Control [8]: 100%
- Percent Control [9]: 83%
- Percent Control [10]: 100%
- Percent Control [11]: 100%
- Percent Control [12]: 100%
- Percent Control [13]: 100%
- Percent Control [14]: 100%
- Percent Control [15]: 88%
- Percent Control [16]: 81%
- Percent Control [17]: 100%
- Percent Control [18]: 99%
- Percent Control [19]: 100%
- Percent Control [20]: 92%
- Percent Control [21]: 100%
- Percent Control [22]: 100%
- Percent Control [23]: 80%
- Percent Control [24]: 98%
- Percent Control [25]: 100%
- Percent Control [26]: 96%
- Percent Control [27]: 68%
- Percent Control [28]: 90%
- Percent Control [29]: 100%
- Percent Control [30]: 100%
